# According to patent US9809568B2, “Compounds inhibiting leucine-rich repeat kinase enzyme activity” (Merck Sharp & Dohme Corp., priority 2013, dated 2017):
# pIC50: −log10 of the molar value.
# Target: LRRK2(G2019S mutation, GST-LRRK2 (amino acids 970-2527)) (Homo sapiens (Human), UniProt Q5S007, G2019S)
# Assay: LRRK2 Km ATP LanthaScreen Assay
# Type: biochemical
# Settings: Km ATP LanthaScreen TR-FRET; G2019S LRRK2, LRRKtide substrate; mean IC50 of several tests
# Source text: Unless otherwise noted, all LRRK2 IC50 data presented in tables refers to the LRRK2 Km ATP LanthaScreen™ Assay that is described in the Biological Assay section.
# The data presented for the Km ATP LanthaScreen™ Assay represents mean IC50 values based on several test results and may have reasonable deviations depending on the specific conditions and reagents used. Reagents for the LRRK2 Km ATP LanthaScreen™ Assay were purchased from Life Technologies Corporation.
# LRRK2 Km ATP LanthaScreen™ Assay
# • a) 400 nl of a 1:2.15 serial dilution of test compound (98 μM top assay concentration) is spotted via Labcyte Echo to certain wells in a 384 well black, untreated plate. Control wells contain 400 nl of either DMSO or 400 nl of a known inhibitor in DMSO. • b) 10 μl of a 2.5 nM LRRK2(G2019S mutation, GST-LRRK2 (amino acids 970-2527)) enzyme solution in 1× assay buffer (50 mM Tris pH 8.5, 10 mM MgCl2, 0.01% Brij-35, 1mM EGTA, 2 mM DTT, 0.05 mM NaVO4) is added to all wells. • c) A 30 minute room temperature incubation is followed by addition of 10 μl of 800 nM fluorescein labeled LRRKtide peptide substrate and 186 μM ATP solution in 1× assay buffer to all wells. • d) After a 60 minute room temperature incubation, 20 μl of TR-FRET Dilution Buffer (Invitrogen PV3756B) containing 4 nM Tb-labeled anti-phospho LRRKtide antibody and 20 mM EDTA is added to all wells. • e) Plates are incubated at room temperature for 1 hour and read on an Envision™ multi-mode plate reader with LanthaScreen™ settings. Results are analysed using Assay Data Analyzer.
# Chain of LRRK2(G2019S mutation, GST-LRRK2 (amino acids 970-2527)) (Q5S007 970-2527 G2019S): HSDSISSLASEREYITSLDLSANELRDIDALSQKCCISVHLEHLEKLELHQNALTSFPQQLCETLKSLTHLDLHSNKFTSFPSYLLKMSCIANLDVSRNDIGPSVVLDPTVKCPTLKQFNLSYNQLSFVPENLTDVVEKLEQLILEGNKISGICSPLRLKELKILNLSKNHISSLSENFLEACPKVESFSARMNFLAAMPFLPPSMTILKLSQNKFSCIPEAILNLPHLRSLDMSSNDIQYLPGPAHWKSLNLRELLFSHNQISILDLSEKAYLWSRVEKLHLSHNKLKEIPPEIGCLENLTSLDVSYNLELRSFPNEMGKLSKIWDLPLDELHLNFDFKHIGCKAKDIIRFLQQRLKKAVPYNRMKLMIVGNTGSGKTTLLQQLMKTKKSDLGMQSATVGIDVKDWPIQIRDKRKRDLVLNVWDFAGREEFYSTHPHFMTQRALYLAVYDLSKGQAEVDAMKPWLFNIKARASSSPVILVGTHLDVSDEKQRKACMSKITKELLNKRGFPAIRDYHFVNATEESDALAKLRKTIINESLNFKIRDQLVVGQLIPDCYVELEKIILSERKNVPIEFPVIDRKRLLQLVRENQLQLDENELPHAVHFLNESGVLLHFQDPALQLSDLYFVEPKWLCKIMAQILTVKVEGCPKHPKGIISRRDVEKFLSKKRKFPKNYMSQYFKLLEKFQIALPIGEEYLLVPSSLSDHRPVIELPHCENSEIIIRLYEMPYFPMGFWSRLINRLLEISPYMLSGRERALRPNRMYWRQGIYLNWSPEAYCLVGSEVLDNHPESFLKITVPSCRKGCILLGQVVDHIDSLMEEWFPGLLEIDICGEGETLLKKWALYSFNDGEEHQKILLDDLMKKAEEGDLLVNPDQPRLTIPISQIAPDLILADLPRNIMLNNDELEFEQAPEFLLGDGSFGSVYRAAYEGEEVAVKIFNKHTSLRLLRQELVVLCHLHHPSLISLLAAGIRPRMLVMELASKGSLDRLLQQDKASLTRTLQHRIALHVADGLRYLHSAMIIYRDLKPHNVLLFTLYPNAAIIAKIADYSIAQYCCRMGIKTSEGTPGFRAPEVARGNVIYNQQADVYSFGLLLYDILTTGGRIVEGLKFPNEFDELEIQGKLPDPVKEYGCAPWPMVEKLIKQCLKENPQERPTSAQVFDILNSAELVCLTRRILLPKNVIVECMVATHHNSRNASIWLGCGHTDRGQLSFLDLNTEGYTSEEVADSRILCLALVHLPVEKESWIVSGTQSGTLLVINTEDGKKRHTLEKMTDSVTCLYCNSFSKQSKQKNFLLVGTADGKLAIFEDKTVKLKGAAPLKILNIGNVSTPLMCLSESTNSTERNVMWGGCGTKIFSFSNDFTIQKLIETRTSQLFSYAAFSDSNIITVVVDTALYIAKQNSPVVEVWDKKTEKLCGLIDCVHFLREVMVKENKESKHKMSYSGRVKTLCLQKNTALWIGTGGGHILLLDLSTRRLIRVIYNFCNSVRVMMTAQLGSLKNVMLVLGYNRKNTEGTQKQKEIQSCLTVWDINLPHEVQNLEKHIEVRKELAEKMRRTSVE
row,SMILES,pIC50
1,Cc1cc(-c2cnn(C)c2)cc2c(-c3ccnc(N4CCOCC4)c3)n[nH]c12 [Example 7],6.70
2,Cc1cc(-c2cnn(C)c2)cc2c(-c3ccnc(N4CC[C@@H](F)C4)c3)n[nH]c12 [Example 12],6.42
3,Cn1cc(-c2cc(F)c3[nH]nc(-c4ccnc(N5CC(F)C5)c4)c3c2)cn1 [Example 10],8.09
4,CC(C)Oc1cc(F)c2[nH]nc(-c3ccnc(N4CCOCC4)c3)c2c1 [Example 4],7.92
5,Cn1cc(-c2cc(Cl)c3[nH]nc(-c4ccnc(N5CCOCC5)c4)c3c2)cn1 [Example 8],6.51
6,Fc1cc(-c2cnccn2)cc2c(-c3ccnc(N4CCOCC4)c3)n[nH]c12 [Example 6],7.24
7,Cc1cc(-c2cnn(C)c2)cc2c(-c3ccnc(N4CCN(S(C)(=O)=O)CC4)c3)n[nH]c12 [Example 11],6.66
